Test results reported in patent US20040101915A1, “Diagnosis and treatment of chemoresistant tumors” (IRM LLC, a Delaware Limited Liability Company, priority 2002, published 2004).

Key:
[1] = system: K422 cells; experiment: MTT cytotoxicity assay, K422 cells; format: cell-based, human; settings: for difference in IC50 concentrations in K422 cells compared to the other cell lines tested: 24 hours, MTT, other lines DOHH2, Jurkat, Jurkat bcl-2, RL-7
Description: An MTT cytotoxicity assay was used to determine the number of viable cells following treatment with various apoptotic stimuli. Cells (100 μl of a 8×10^5 cells/ml suspension) were added to each well of a 96 well plate and incubated with etoposide or doxorubicin for 24-72 h. MTT dye solution was then added for 4 h, the blue crystal product was solubilized over night at 37° C. and absorbance was measured at 570 nm. Because the MTT assay also measures growth arrest, the MTT results were verified with caspase activity assays.

[2] = system: K422 cells; experiment: Caspase activity assay (AFC release from DEVD-AFC) in lysates of treated cells; format: cell-based, human; settings: 100 nM
Description: Caspase activities were assayed as previously described (Stennicke and Salvesen, 2000) at 37° C. in 40 μl of caspase buffer (50 mM HEPES pH 7.4, 100 mM NaCl, 10% sucrose, 1 mM EDTA, 0.1% CHAPS and 10 mM DTT) containing 100 μM of the fluorogenic peptide Ac-DEVD-AFC. Activity was measured continuously over the indicated time by the release of AFC from DEVD-AFC using a Molecular Devices fluorometer in the kinetic mode and with the 405-510 filter pair. For the assessment of caspase activity in intact cells after treatment with different apoptosis stimuli 10-20 μg of total cell protein (Triton X-100 extracts) was used in 40 μl of caspase buffer (containing 100 μM DEVD-AFC). For in-vitro initiation of caspase activity by cytochrome c Triton X-100 free, hypotonic cytosolic extracts were prepared and 10 μM horse heart cytochrome c (Sigma) together with 1 mM dATP or recombinant active caspase-8 (20 nM) were used for caspase activation (Deveraux et al., 1997). For reconstitution of RL-7 hypotonic cell extracts recombinant pro-caspase-3 was used as previously described (Stennicke et al., 1998).

[3] = system: K422 cells; experiment: Western blot analysis of caspase processing in treated FL cells; format: cell-based, human; settings: 100 nM; for processing of caspase-8: DOHH2, K422 and RL-7; for caspase processing of the caspases-2, -3, -7 and -9: K422 versus DOHH2 and RL-7
Description: Western blot analysis was used to evaluate protein expression.

[4] = system: K422 cells; experiment: Morphological examination of treated FL cells; format: cell-based, human; settings: FL cells DOHH2, K422, RL-7
[5] = system: NCI 60 tumor cell panel; settings: NCI database; cited from earlier work
[6] = system: DR5 protein levels in DOHH2 cells; settings: 4.25 μM etoposide, Western blot
Description: Western blot analysis was used to evaluate protein expression. Cells (2.4×10^6 well) were seeded in 6 well plates and treated with the respective apoptosis stimuli. After the indicated time periods cells were washes in ice cold PBS and lysed in 1% Triton X-100 containing hypotonic lysis buffer (20 mM HEPES pH 7.5, 10 mM KCl, 1.5 mM MgCl2, 1 mM EDTA and 1 mM DTT). Protein (40 μg) was electorphoresed under reducing conditions on 10-20% gradient SDS-polyacrylamide gels. After electroblotting on nitrocellulose membranes (Schleicher and Schuell) the membranes were blocked for 1 h with 10% non-fat milk powder and immunoblotted for 1 h with the following primary antibodies: rabbit anti-DR5 polyclonal antibody (1:500, Cayman Chemicals), mouse anti-Fas monoclonal antibody CH-11 (MBL), rabbit anti-caspase-3 polyclonal antibody (1:1000, Pharmingen), rabbit anti-caspase-8 polyclonal antibody (1:1000, Pharmingen), mouse anti-caspase-9 monoclonal antibody 5B4 (1:1000, MBL), mouse anti-bcl-2 monoclonal antibody (1:500, Pharmingen) or goat anti-actin polyclonal antibody (1:200, Santa Cruz Biotechnology). Membranes were washed five times with TBS/0.05% Tween, incubated with the respective peroxidase conjugated affinity purified secondary antibody (1:5000, Biorad) for 30 min, washed again five times and developed using enhanced chemiluminescence (ECL, Amersham).

[7] = system: RL-7 cells; experiment: MTT cytotoxicity assay, RL-7 cells; format: cell-based, human; settings: etoposide 0.425 μM 4 hours then agonistic anti-DR5 antibodies 12 hours
[8] = system: DOHH2 cells; experiment: MTT cytotoxicity assay, DOHH2 cells; format: cell-based, human; settings: etoposide 0.425 μM 4 hours then agonistic anti-DR5 antibodies 12 hours, compared to drug or antibody alone

Structure (SMILES)	difference in IC50 concentrations in K422 cells compared to the other cell lines tested [1]	caspase activation (enzymatic activity) [2]	processing of caspase-8 [3]	caspase processing of the caspases-2, -3, -7 and -9 [3]	classical features of apoptosis (morphology) [4]	sensitivity of NCI 60 tumor cell panel [5]	DR5 protein levels following exposure [6]	effect of etoposide pretreatment on apoptosis induced by anti-DR5 antibody ([1]; K422, etoposide 0.425 μM 4 hours then agonistic anti-DR5 antibodies 12 hours)	effect of etoposide pretreatment on apoptosis induced by anti-DR5 antibody [7]	effect of etoposide pretreatment on apoptosis induced by anti-DR5 antibody [8]
C[C@H]1CCC/C=C/[C@@H]2C[C@H](O)C[C@H]2[C@H](O)/C=C/C(=O)O1 [Brefeldin A]	6 fold	induced caspase activation	remained unprocessed in all of the cell lines	only in K422 but not DOHH2 or the caspase-3 deficient RL-7 cells	only K422 exhibited the classical features of apoptosis	one of the most sensitive cell lines is NCI/ADR				
CO[C@@H]1[C@H]([N+](C)(C)C)CC2O[C@]1(C)n1c3ccccc3c3c4c(c5c6ccccc6n2c5c31)C(=O)NC4 [Staur-F3]	25 fold	induced caspase activation	remained unprocessed in all of the cell lines	only in K422 but not DOHH2 or the caspase-3 deficient RL-7 cells	only K422 exhibited the classical features of apoptosis					
COc1cccc2c1C(=O)c1c(O)c3c(c(O)c1C2=O)C[C@@](O)(C(=O)CO)C[C@@H]3O[C@H]1C[C@H](N)[C@H](O)[C@H](C)O1 [doxorubicin]							significantly increased			
COc1cc([C@@H]2c3cc4c(cc3[C@@H](O[C@@H]3O[C@@H]5CO[C@@H](C)O[C@H]5[C@H](O)[C@H]3O)[C@H]3COC(=O)[C@H]23)OCO4)cc(OC)c1O [etoposide]							significantly increased	negligible effect	negligible effect	significantly increased apoptosis
